Read-outs that look alike come from different tables or passages of the source.
Columns and labels:
[1] = test system: P. aeruginosa PA14 liquid cultures; test: Toxicity of reduced PYO to liquid-grown cells under anoxic conditions; type: cell-based; settings: 1, 10, and 100 μM reduced PYO, 30 minutes, normalized to untreated
Description: FIG. 8: Toxicity of reduced PYO to liquid-grown cells. Exposure of mid-log aerobic P. aeruginosa PA14 liquid cultures to 1, 10, and 100 μM reduced PYO under anoxic conditions. Triplicate data shown normalized to untreated samples with line at mean.
Treatment of liquid cultures with reduced PYO. 100 μM PYO in MM was reduced electrochemically using a dual-chamber reactor with an cation exchange membrane (CMI-7000, Membranes International) to avoid re-oxidation of PYO at the counter electrode. […] chamber contained Ag/AgCl reference electrode, platinum mesh working electrode, and was flushed with N2; while […] chamber was oxic and contained platinum mesh counter electrode. PYO reduction was carried out by poising the working electrode at −400 mV vs. Ag/AgCl for 24 hours, past the point of 100% PYO reduction based on coulombic efficiency, and biochemical reactor was then transferred into the anaerobic chamber. Anoxic vials with pre-equilibrated MM and corresponding concentrations of reduced PYO were then treated with biochemical O2 scavenging system (10 mM glucose+375 nM glucose oxidase+750 nM catalase) for an hour before inoculation. Aerobic liquid cultures of P. aerughnosa in MM at mid-log (OD600=0.5) were spun down and resuspended in fresh media and used to inoculate assays with 10% (vol/vol). […]

[2] = Midpoint potential E1/2 by voltammetry vs Ag/AgCl (3M KCl); type: physicochemical; settings: for E1/2 (vs. Ag/AgCl (3M KCl))/mV: Example 15 table
Description: The purified redox-active molecule can be dissolved in aqueous solution at appropriate concentration in the presence of supporting electrolyte and buffer to select the pH of measurement. For example, the redox-active molecule can be dissolved in 10 μM-10 mM concentrations in distilled, deionized water (DDW). The supporting electrolyte can be a salt such as NaCl or KCl at 0.01-0.5 M concentrations, for example, dissolved in DDW. The buffer can be 10 mM ammonium acetate/3-(N-morpholino)propanesulfonic acid at pH 7, or phosphate-buffered saline (PBS) at pH 7.4, or sodium acetate buffer at pH 5, or di-sodium hydrogen phosphate/potassium dihydrogen phosphate at pH 9, or boric acid/citric acid/trisodium phosphate for a wide range of pH values, for example.
Voltammetric methods are then used to characterize the electrochemical behavior of the redox-active molecule in such solution, with a potentiostat such as a Gamry PC4-300, using a three-electrode setup with working electrode (glassy carbon, or platinum, or gold), counter electrode (platinum wire) and reference electrode (Ag/AgCl (3M KCl), or SCE, or NHE; values are reported relative to Ag/AgCl (3M KCl) which has potential +197 mV vs. NHE at 298K).
For example, cyclic voltammetry may be used. In a cyclic voltammetry experiment phenazines will show a peak on the cathodic sweep (denoted Epc) corresponding to the reduction of the redox molecule.
The reverse, anodic sweep will show a peak (denoted Epa) corresponding to the re-oxidation of the redox molecule. If the electrode reaction is diffusion-controlled and reversible, the cathodic and anodic peak currents will be equal in area, and the mid-point between these peaks may be taken as the formal reduction potential of the redox molecule under the experimental conditions used. This value can interchangeably be referred to as the “midpoint potential” or “mid-peak potential”, denoted E1/2.
PYO was purified from aerobic bacterial cultures and was dissolved in 0.1 M KCl aqueous solution buffered with 10 mM ammonium acetate-3-(N-morpholino)propanesulfonic acid (5 mM each, pH 7) to yield a stock solution concentration of 829 μM PYO. Electrochemical measurements were performed with a Gamry PC4-300 potentiostat. A stationary gold disk electrode (BASi) was used as the working electrode, an Ag/AgCl electrode (RE-51, BASi) as the reference, and a straight platinum wire (BASi) was the counter electrode. Scans were performed between 20 and 500 mV/s in the potential range of around E1/2 (+/−300 mV), at 298 K.
As described in en.wikipedia.org/wiki/Nernst_equation, the Nernst equation relates E1/2 measured at pH 7 to the E1/2 at a different pH by:
[formula] • where E1/2 is in V • h is the number of protons transferred in the electrochemical reaction • e is the number of electrons transferred in the electrochemical reaction

PA14 [3] = test: Redox cycles over 7 days and support of survival (Table 4); type: cell-based, P. aeruginosa
Text: (§1) Phenazines and other redox active compound in the sense of the disclosure can be further characterized by various electrical properties such as a standard electrode potential E° vs. NHE of −500 mV to 500 mV and other properties such as number of redox cycle over a certain period of time (e.g. number of days) as ability to support survival and susceptibility to reduction by enzymes and/or bacterial strains.

[4] = vs NHE at pH7; cited from earlier work
[5] = oxidized form; literature values (footnotes a, c, d); cited from earlier work
[6] = Square wave voltammograms of electrode-attached biofilms; type: physicochemical; settings: acquired immediately after transfer to anoxic reactors
Description: FIG. 3: Electrochemical signal of wild type, Δphz*, and Δphz*+10 μM PYO showing PYO (E1/2=−250 mV vs Ag/AgCl) is the only redox active signal observed under these conditions and is retained by wild type biofilms. Square wave voltammograms acquired immediately after transfer to anoxic reactors.
Square Wave Voltammograms. Potential was scanned from +100 mV to −500 mV vs Ag/AgCl and in reverse with the following parameters: pulse height=50 mV, pulse width=66.6 ms, step height=−0.5 mV, and acquisition of the average current over the last 50% of each step. Square wave voltammograms were acquired immediately after transfer from oxic to anoxic conditions.

Δphz* biofilms = test: Anoxic survival (CFU) of electrode-attached phenazine-deficient biofilms at poised potential; type: cell-based, P. aeruginosa UCBPP-PA14; Δphz*; settings: 10 μM PYO added, PYO-reductive conditions
Description: Electrochemical reactors and biofilm growth. Double-jacketed electrochemical reactors (Pine Instruments, 250 ml, wide center port 29/26) were used with ITO-coated 0.2 mm thick boro-aluminosilicate glass slides (Delta Technologies, 24×60 mm, Rs=7-10Ω) as working electrodes, freshly sanded graphite rods (Alfa Aesar) as counter electrodes, and Ag/AgCl in 3M KCl reference electrodes (BASi). Silver epoxy (Electron Microscopy Sciences) was used to make electrical connection between insulated wire ([…]) and working electrode and was insulated using 5 Minute® expoxy (Devcon). Working electrodes were assembled within 5 hours of use. Reactors were sterilized by autoclaving without reference or working electrodes, which were sterilized by submerging in 10% bleach for 5 minutes or 30 seconds, respectively, and rinsed in sterile water. Individual mid-log liquid cultures (OD600 0.45-0.55) were used to inoculate sterile reactors containing 140 ml of MM (described above) with 0.1% (vol/vol) for each biological replicate. Antibiotics were not added at this point. Working electrodes were poised at either open circuit, +100 mV, or −400 mV vs. Ag/AgCl (+310 mV and −190 mV vs the standard hydrogen electrode, respectively). Reactors were aerated using an aquarium pump with a 0.2 μm filter (Thermo Scientific) and heated to 31° C. using a circulating water bath (Haake A 25, Thermo Scientific). Fresh medium was exchanged every 24 hours for 5 days. After 5 days of aerobic growth, working electrode-attached biofilms were rinsed in sterile medium to remove planktonic cells and transferred to sterile reactors with fresh MM previously flushed for 2 hours with N2 ultra-high purity gas (NRL supply store). For antibiotic exposure experiments, antibiotics were added to sterile media before flushing with N2. […]
Biofilm harvesting and processing. […] SYTO-60 was excited with a 561 nm; 0.20% laser and emission was recorded from 580-700 nm. TOTO-1 was excited with a 488 nm; 0.20% laser and emission was recorded from 490 to 580 nm.

[7] = from Wang and Newman (2008), cited from earlier work
PA14 [8] = test: Reduction of redox-active compound by PA14 (Table 4); type: cell-based, P. aeruginosa
Text: as §1

Which “decrease in CFUs of liquid cultures” value [1] does the source give for CN1c2ccccc2Nc2c(O)cccc21 [reduced PYO] here?
The value was “two- to threefold decrease in CFUs”.

For Cn1c2cccc(=O)c-2nc2ccccc21 [Pyocyanin (PYO), Pyocyanin], which “E1/2 (vs. Ag/AgCl (3M KCl))/mV” value ([2]; pH 5) is on record?
The value was −128 mV.

What about the “E1/2 estimated vs. Ag/AgCl (3M KCl)” value ([2]; pH 6, estimated) of the same molecule?
The value was −178 mV.

What about the “E1/2 (vs. Ag/AgCl (3M KCl))/mV” value ([2]; pH 6) of the same molecule?
Its value is −189 mV.

What about the “E1/2 vs. Ag/AgCl (3M KCl)” value ([2]; pH 7, 298 K, 0.1 M KCl, gold disk working electrode) of the same molecule?
The value was −237 mV.

And the “E1/2 vs. NHE” value ([2]; pH 7, 298 K, corrected to NHE by adding 197 mV)?
Its value is −40 mV.

What about the “E1/2 (vs. Ag/AgCl (3M KCl))/mV” value ([2]; pH 7) of the same molecule?
The value was −237 mV.

What about the “E1/2 estimated by Nernst equation” value ([2]; pH 8, estimated from pH 7 value) of the same molecule?
Its value is −296 mV.

What about the “E1/2 (vs. Ag/AgCl (3M KCl))/mV” value ([2]; pH 8) of the same molecule?
Its value is −300 mV.

What about the “Support survival?” value (PA14 [3]) of the same molecule?
Its value is “Yes”.

And the “# of Redox cycles over 7 days” value (PA14 [3]; over 7 days)?
Its value is 31.

What about the “Redox potentials E (mV)” value [4] of the same molecule?
Its value is −34 mV.

And the “E0' (vs. NHE) (mV)” value [5]?
The value was −40^a mV.

And the “E1/2 vs Ag/AgCl in biofilm square wave voltammograms” value [6]?
The value was −250 mV.

What about the “effect of PYO addition on Δphz* biofilm CFUs (in words)” value (Δphz* biofilms; listed as PYO) of the same molecule?
The value was “sensitized under PYO-reductive conditions”.

And the “effect of PYO addition on Δphz* biofilm CFUs (in words)” value (Δphz* biofilms; listed as pyocyanin)?
The value was “re-sensitized”.

And the “E1/2 (vs. Ag/AgCl (3M KCl))/mV” value ([7]; pH 5)?
Its value is −128 mV.

What about the “E1/2 (vs. Ag/AgCl (3M KCl))/mV” value ([7]; pH 6) of the same molecule?
The value was −189 mV.

What about the “E1/2 (vs. Ag/AgCl (3M KCl))/mV” value ([7]; pH 7) of the same molecule?
The value was −237 mV.

What about the “E1/2 (vs. Ag/AgCl (3M KCl))/mV” value ([7]; pH 8) of the same molecule?
Its value is −300 mV.

What about the “Reduction by PA14?” value (PA14 [8]) of the same molecule?
Its value is “Yes”.
